Reference: paper PMC3154276, “The Effect of the Potential PhoQ Histidine Kinase Inhibitors on Shigella flexneri Virulence” (PLoS ONE, 2011)

Columns and labels:
S. flexneri Sf9380 [1] = assay: Gentamicin protection assay, HeLa cell invasion by Sf9380; format: cell-based
Protocol: The growth curve of Sf9380 treated with or without potential PhoQ inhibitors at concentration 200 µmol/L were tested. […] The gentamicin protection assay was used as a cellular model to evaluate the inhibitory effect of the four potential PhoQ inhibitors. The bacteria were treated with each of the four potential PhoQ inhibitors in a serial dilution and grown for 8 hours. Next, the bacteria were inoculated and incubated with HeLa cells for 60 min prior to the addition of gentamicin to kill extracellular bacteria. For testing intracellular growth and spreading to adjacent cell, cells were further incubated for 290 min [9]. The results of the assays were expressed as the number of bacteria recovered from gentamicin-treated cells divided by the number of inoculated bacteria added to the cell. After lysates of HeLa cells were plated, the number of CFU that formed on LB agar were counted.
Figure 6 The effects of potential PhoQ inhibitors on virulence of Shigella. […] The bacteria pre-treated with potential PhoQ inhibitor were added to HeLa cells at a multiplicity of infection of 100. Then gentamicin was added to kill extracellular bacteria and cell lysates were plated onto LB plates, and the colonies were counted. The results of the assays were expressed as the number of bacteria recovered from gentamicin-treated cells divided by the number of inoculated bacteria added to the cell. S. flexneri Sf9380 (treated without DMSO), a clinical strain with strong virulence, served as the positive control for the cell invasion assay; E. coli ATCC 25922 (treated without DMSO), an avirulent strain, served as the negative control for the cell invasion assay; bacteria treated with 0.1% DMSO (the solvent of the potential PhoQ inhibitor) also served as a control for the cell invasion assay. Values are means ± standard deviations from 6 independent wells. *p<0.01 vs. Sf9380. (A) The effects of potential PhoQ inhibitors on cell invasion of S. flexneri Sf9380 (B) The effects of potential PhoQ inhibitors on intracellular growth S. flexneri Sf9380. (C) The effects of potential PhoQ inhibitors on cell invasion of S. flexneri 2a 301 phoQ/phoP knock-out mutant.
Bacterial ability to invade HeLa cells was tested with a gentamicin protection assay. HeLa cells were grown in six-well tissue culture plates to semi-confluent monolayers (DMEM, 10% FCS, 5% CO2). Sf9380 or Sf301 ΔphoQ/phoP was treated with potential PhoQ inhibitors for 8 hours in LB at 37°C (final concentrations of 100,50,25,12.5 or 6.25 µmol/L) prior to infection. The bacteria pre-treated with potential PhoQ inhibitor without washing, were added to semi-confluent HeLa cells at a multiplicity of infection of 100, at the same time the bacteria were diluted and plated onto LB agar plates. The CFUs were counted as initial bacterial number before added into HeLa cells. Then the plates were centrifuged at 900×g for 5 minutes. After incubating at 37°C for 60 minutes (For testing intracellular growth and spreading to adjacent cell, cells were further incubated for 290 min [9].), the cells were washed three times with PBS, and gentamicin was added to the medium to a final concentration of 10 µg/ml for 20 minutes at 37°C. After the incubation, the HeLa cells in each well were lysed in 1 ml of PBS containing 0.1% Triton X-100 for 10 minutes at room temperature. The lysates were diluted and plated onto LB agar plates in triplicate. Colonies grown on LB plates were counted. The results of the assays were expressed as the number of bacteria recovered from gentamicin-treated cells divided by the number of inoculated bacteria added to the cell. The cells were inoculated with untreated Sf9380 or Sf301 ΔphoQ/phoP (treated without DMSO) as a positive control and E. coli ATCC 25922, an avirulent strain treated without DMSO, as a negative control. […]

S. flexneri Sf9380 [2] = assay: Mouse Sereny test (keratoconjunctivitis); for degree of keratoconjunctival inflammation: key: −: no disease; ±: little keratoconjunctivitis; +: mild keratoconjunctivitis; ++: keratoconjunctivitis with some purulence; +++: fully developed keratoconjunctivitis with great purulence; format: in vivo, BALB/c mice; settings: for degree of keratoconjunctival inflammation: Sf9380 pre-treated at the concentration (I 1 12.5, I 2 25, I 3 and I 4 100 µmol/L); for eye finding at 24 hours post-infection / time by which keratoconjunctivitis was resolved: Sf9380 pre-treated with 100 µmol/L, 1×10^8 CFUs per eye; for keratoconjunctival inflammation (words, abstract): mice inoculated with pre-treated S. flexneri 9380
Text: A Mouse Sereny test was used to investigate the inhibitory effect of the four potential PhoQ inhibitors on the virulence of S. flexneri Sf9380. The mice were infected with 1×10^8 CFUs per eye.
A Mouse Sereny test was used to evaluate the virulence of S. flexneri Sf9380 [48]. A single red colony of Sf9380 on Congo Red agar (Tryptic soy broth provided by Oxfoid Co. with 1.5% agar and 0.01% Congo red), was inoculated into LB and grown with or without potential PhoQ inhibitors (final concentration 100,50,25,12.5 or 6.25 µmol/L) at 37°C for 8 hours with constant shaking. The female BALB/c mice (about 18 g) were infected with 1×10^8 CFUs per eye. The eye of the mouse was inoculated with the bacterium with or without potential PhoQ inhibitor treatment (n = 6 mice in each group). […] In the experiment, mouse eyes inoculated with untreated Sf9380 (treated without DMSO) served as the positive control for keratoconjunctivitis, and mouse eyes inoculated with E. coli ATCC 25922 (treated without DMSO) served as the negative control. Because DMSO is the solvent of the potential PhoQ inhibitor, Sf9380 was treated with the same amount of DMSO (0.1%) as the other groups. The invasiveness of the bacteria was scored: no disease or mild irritation as “−”, + as mild conjunctivitis or late development and/or rapid clearing of symptoms, ++ as keratoconjunctivitis without purulence, and +++ as fully developed keratoconjunctivitis with purulence.

O=C(O)c1ccc(Cl)c(-c2ccc(/C=N/NC(=O)c3ccc(Br)cc3)o2)c1 [Compound 3]
slight conjunctival inflammation: eye finding at 24 hours post-infection (S. flexneri Sf9380 [2])
1.95×10^−2: invasion of HeLa cells by Sf9380 (bacteria recovered / inoculated) (S. flexneri Sf9380 [1]; 100 µmo/L, bacteria pre-treated 8 hours, untreated Sf9380 5.87×10^−2)
≤ 72 h: time by which keratoconjunctivitis was resolved (S. flexneri Sf9380 [2])
no obvious effects: effect on invasion of HeLa cells by Sf9380 (S. flexneri Sf9380 [1]; concentrations lower than 100 µmo/L)
no inflammation: keratoconjunctival inflammation (words, abstract) (S. flexneri Sf9380 [2])
+: degree of keratoconjunctival inflammation (S. flexneri Sf9380 [2]; 24 h, mouse 1) | degree of keratoconjunctival inflammation (S. flexneri Sf9380 [2]; 24 h, mouse 2) | degree of keratoconjunctival inflammation (S. flexneri Sf9380 [2]; 24 h, mouse 3) | degree of keratoconjunctival inflammation (S. flexneri Sf9380 [2]; 24 h, mouse 4) | degree of keratoconjunctival inflammation (S. flexneri Sf9380 [2]; 24 h, mouse 5) | degree of keratoconjunctival inflammation (S. flexneri Sf9380 [2]; 24 h, mouse 6) | degree of keratoconjunctival inflammation (S. flexneri Sf9380 [2]; 48 h, mouse 1) | degree of keratoconjunctival inflammation (S. flexneri Sf9380 [2]; 48 h, mouse 5) | degree of keratoconjunctival inflammation (S. flexneri Sf9380 [2]; 72 h, mouse 2)
−: degree of keratoconjunctival inflammation (S. flexneri Sf9380 [2]; 48 h, mouse 2) | degree of keratoconjunctival inflammation (S. flexneri Sf9380 [2]; 48 h, mouse 3) | degree of keratoconjunctival inflammation (S. flexneri Sf9380 [2]; 48 h, mouse 4) | degree of keratoconjunctival inflammation (S. flexneri Sf9380 [2]; 48 h, mouse 6) | degree of keratoconjunctival inflammation (S. flexneri Sf9380 [2]; 72 h, mouse 1) | degree of keratoconjunctival inflammation (S. flexneri Sf9380 [2]; 72 h, mouse 3) | degree of keratoconjunctival inflammation (S. flexneri Sf9380 [2]; 72 h, mouse 4) | degree of keratoconjunctival inflammation (S. flexneri Sf9380 [2]; 72 h, mouse 5) | degree of keratoconjunctival inflammation (S. flexneri Sf9380 [2]; 72 h, mouse 6) | degree of keratoconjunctival inflammation (S. flexneri Sf9380 [2]; 96 h, mouse 1) | degree of keratoconjunctival inflammation (S. flexneri Sf9380 [2]; 96 h, mouse 2) | degree of keratoconjunctival inflammation (S. flexneri Sf9380 [2]; 96 h, mouse 3) | degree of keratoconjunctival inflammation (S. flexneri Sf9380 [2]; 96 h, mouse 4) | degree of keratoconjunctival inflammation (S. flexneri Sf9380 [2]; 96 h, mouse 5) | degree of keratoconjunctival inflammation (S. flexneri Sf9380 [2]; 96 h, mouse 6)

O=C(O)c1cc(-c2ccc(-c3ccccc3Cl)o2)nc2ccc3ccccc3c12 [Compound 4]
no inflammation: keratoconjunctival inflammation (words, abstract) (S. flexneri Sf9380 [2])
−: degree of keratoconjunctival inflammation (S. flexneri Sf9380 [2]; 24 h, mouse 6) | degree of keratoconjunctival inflammation (S. flexneri Sf9380 [2]; 48 h, mouse 2) | degree of keratoconjunctival inflammation (S. flexneri Sf9380 [2]; 48 h, mouse 3) | degree of keratoconjunctival inflammation (S. flexneri Sf9380 [2]; 48 h, mouse 4) | degree of keratoconjunctival inflammation (S. flexneri Sf9380 [2]; 48 h, mouse 6) | degree of keratoconjunctival inflammation (S. flexneri Sf9380 [2]; 72 h, mouse 2) | degree of keratoconjunctival inflammation (S. flexneri Sf9380 [2]; 72 h, mouse 3) | degree of keratoconjunctival inflammation (S. flexneri Sf9380 [2]; 72 h, mouse 4) | degree of keratoconjunctival inflammation (S. flexneri Sf9380 [2]; 72 h, mouse 5) | degree of keratoconjunctival inflammation (S. flexneri Sf9380 [2]; 72 h, mouse 6) | degree of keratoconjunctival inflammation (S. flexneri Sf9380 [2]; 96 h, mouse 1) | degree of keratoconjunctival inflammation (S. flexneri Sf9380 [2]; 96 h, mouse 2) | degree of keratoconjunctival inflammation (S. flexneri Sf9380 [2]; 96 h, mouse 3) | degree of keratoconjunctival inflammation (S. flexneri Sf9380 [2]; 96 h, mouse 4) | degree of keratoconjunctival inflammation (S. flexneri Sf9380 [2]; 96 h, mouse 5) | degree of keratoconjunctival inflammation (S. flexneri Sf9380 [2]; 96 h, mouse 6)
≤ 72 h: time by which keratoconjunctivitis was resolved (S. flexneri Sf9380 [2])
slight conjunctival inflammation: eye finding at 24 hours post-infection (S. flexneri Sf9380 [2])
no effect: effect on invasion of HeLa cells by Sf9380 (S. flexneri Sf9380 [1]; 100 µmo/L)
+: degree of keratoconjunctival inflammation (S. flexneri Sf9380 [2]; 24 h, mouse 1) | degree of keratoconjunctival inflammation (S. flexneri Sf9380 [2]; 24 h, mouse 2) | degree of keratoconjunctival inflammation (S. flexneri Sf9380 [2]; 24 h, mouse 3) | degree of keratoconjunctival inflammation (S. flexneri Sf9380 [2]; 24 h, mouse 4) | degree of keratoconjunctival inflammation (S. flexneri Sf9380 [2]; 24 h, mouse 5) | degree of keratoconjunctival inflammation (S. flexneri Sf9380 [2]; 48 h, mouse 1) | degree of keratoconjunctival inflammation (S. flexneri Sf9380 [2]; 48 h, mouse 5) | degree of keratoconjunctival inflammation (S. flexneri Sf9380 [2]; 72 h, mouse 1)
